In patent US8772321B2, “Heteroannelated anthraquinone derivatives for inhibiting cancers” (National Defense Medical Center, priority 2008, dated 2014):
Where a SMILES comes first, the peptide text is derived from it. The star is where a group is joined. Cbz = O=C(OCc1ccccc1)*

What was measured:
Assay type in all cases: cell-based, human
p53 and p21 = p53 and p21 protein expression, immunoblot; conditions: HeLa cells, MG132 1 uM or 10 uM added 3 hours before harvesting; only at lower concentrations of NSC745885
Experimental: (§1) Cell lysates were prepared in lysis buffer (100 mM Tris-HCl pH 8.0, 150 mM NaCl, 0.1% SDS, and 1% Triton 100) at 4° C., separated by sodium dodecyl sulfate-polyacrylamide gel electrophoresis (SDS-PAGE), and then transferred onto a polyvinylidine difluoride membrane (Millipore, USA). Proteins were detected using antibodies against alpha actinin (ACTN), proliferating cell nuclear antigen (PCNA), p53, p21, cyclin B1, and cyclin D1 (Santa Cruz Biotechnology, USA), YH2A.X (EP854(2)Y, Epitomics, USA), cleaved caspase 3, cleaved poly(ADP-ribose) polymerase (PARP) and LC3B-II (Cell signaling, USA).
Cell cycle regulatory protein p21 is one of p53's targets. […] In this experiment, HeLa cells were treated with the indicated concentrations of DXR or NSC745885 for 12 hours and then assessed by immunoblot (FIG. 6A) and RT-PCR (FIG. 6B).
In FIG. 6C, HeLa cells were treated with the indicated concentrations of NSC745885 for 12 hours; proteasome inhibitor MG132 (1 uM or 10 uM) was added 3 hours before harvesting. Cell protein extracts were tested with anti-p53 and anti-p21 antibodies. The results are representative of two independent experiments.

HeLa/shp53 cells = experiment: MTT cell viability assay, HeLa vs HeLa/shp53; conditions: endogenous p53 silenced; 24, 48, 72 hours
Experimental: (§2) HeLa and HeLa/shp53 cells were grown in DMEM supplemented with 10% charcoal/dextran-treated fetal bovine serum. Cells in a 24-well plate were transfected with jetPEI (PolyPlus-transfection, France) according to the manufacturer's protocol; total DNA was adjusted to 1.0 μg by the addition of empty vector DNA. Luciferase assays were performed using the Promega Luciferase Assay kit, and the measurement was expressed numerically as relative light units (RLU). Luciferase activities were presented as means and standard deviation of two transfected sets. […] Instead, the reproducibility of the observed effects on luciferase activity was determined in multiple independent transfection experiments.
To understand the functional role that endogenous p53 plays in the cytotoxic effects of DXR and NSC745885, we measured cell viability of HeLa or HeLa/shp53 cells using MTT cell viability assay. In this assay, endogenous p53 is silenced, both in the presence or absence of the drugs (FIG. 8). […]

HeLa cells [1] = experiment: DNA damage, immunoblot of γ-phosphorylation of histone H2A.X; conditions: various doses, 12 hour
Experimental: The anthracyclin antibiotic agent doxorubicin (DXR) is an active cytotoxic reagent with a wide range of clinical indications, including treatment of solid tumors in the ovary, breast, and gastrointestinal systems, as well as treatment of liquid tumors such as leukemia. […] Specifically, HeLa cells were treated with NSC745885 at various doses for 12 hour. The phosphorylation of γ-H2A.X was subsequently detected by the immunoblot.
as §1

HeLa cells [2] = experiment: Senescence-associated β-galactosidase staining; conditions: DXR at low concentrations
Experimental: Cultured cells were washed in PBS (pH 7.4), incubated in a solution of 2% formaldehyde/0.2% glutaraldehyde, and then incubated overnight at 37° C. in freshly prepared staining solution consisting of 1 mg/mL X-gal (5-bromo-4-chloro-3-indolyl-β-D-galactoside), 5 mM K3Fe(CN)6, 5 mM K4Fe(CN)6, 150 mM NaCl and 2 mM MgCl2 in 40 mM citric acid/sodium phosphate, pH 6.0. Following this incubation, cells were washed with water and examined by light microscopy at 200× magnification.
(§3) In FIGS. 5C and 5D, HeLa cells were incubated with 2.5 μM NSC745885 for 24 hours. After 48 hours, cells were subjected to SA-β-galactosidase staining (FIG. 5C) and approximately 100 stained cells were quantified (*P<0.05; ** P<0.01; *** P<0.005). NSC745885 induced senescence at a rate of 25% (P=0.0085 compared to DMSO). (FIG. 5D) LC3B-I fragments were observed when the cells were exposed to the drug for longer period of time (FIG. 5A, panel labeled as LE). […] We also treated Hela cells with the autophagy inducer spermidine (Spd) and vehicle (DMSO), which act as the positive and the negative control, respectively.

HeLa cells [3] = experiment: Apoptosis: cleaved PARP and caspase 3 immunoblot, DNA fragmentation gel; conditions: various doses, 16 hours
Experimental: It is well noted that DXR can induce cardiomyocyte death by apoptosis and necrosis. DXR is also involved in other types of cellular processes, such as autophagy and senescence/aging. To investigate induction of apoptosis caused by NSC745885, we adopted DXR as a positive control and examined the levels of cleaved PARP and caspase 3 as apoptotic indicators using immunoblot (FIG. 4A), as well as DNA fragmentation using agarose gel electrophoresis (FIG. 4B). HeLa cells were treated with either DXR or NSC745885 at various doses for 16 hours. Subsequently, the total cellular protein was extracted and immunoblotted with antibodies against the cleaved types of PARP and caspase 3. Additionally, genomic DNA was isolated and analyzed by 2% agarose gel electrophoresis followed by ethidium bromide staining. The results (FIG. 4A and FIG. 4B) are representative of three independent experiments. […] Treatment with NSC745885 decreased protein stability, an effect that appeared to be selective, and was confirmed in other immunoblot analyses (shown in FIG. 6A, lanes 1 and 6).
as §1

[4] = test system: p53-dependent reporter (pG13-LUC); experiment: p53-dependent reporter (pG13-LUC) luciferase assay; conditions: HeLa cells co-transfected with Zac1 expression vector
Experimental: as §2
HeLa cells infected with human papillomavirus and expressing the E6 oncoprotein, which maintains endogenous wild-type p53 at a very low concentration, are used as a model system for studying human cervical tumorigenesis. In order for us to confirm the effects of DXR and NSC745885 on endogenous p53, HeLa cells were transiently transfected with a p53-dependent reporter (pG13-LUC) (FIG. 7A) and a p21 promoter reporter (p21-LUC) (FIG. 7B), along with an expression vector for a well-known p53 activator (Zac1).

HeLa cells [5] = experiment: Autophagy: LC3B-II immunoblot; conditions: 12 hours
Experimental: as §1
Altered intracellular localization of LC3B (LC3B-I) and increased electrophoretic mobility of LC3B (LC3B-II) are correlated with recruitment to autophagic membranes and can be used as molecular markers for autophagic activation.
In FIG. 5A, HeLa cells were treated with the indicated concentrations of DXR, NSC745885 for 12 hours, and then cell lysates were analyzed by immunoblot using antibodies directed against LC3. The results are representative of three independent experiments.

HeLa cells [6] = experiment: Cell cycle profile by FACS
Excerpt: Cell cycle arrest is an important damage surveillance mechanism. […] Treating the cells with NSC745885 caused 47-58% of cells to arrest in sub-G1, which is indicative of cell death. This effect was dose- and time-dependent (FIG. 3, Panel B).

HeLa cells [7] = experiment: Autophagosome formation, GFP-LC3 fluorescence microscopy; conditions: HeLa cells transfected with GFP-LC3; 2.5 μM NSC745885, 12 hours
Experimental: In FIG. 5B, HeLa cells were transfected with 0.25 μg of an expression vector for GFP-LC3 for 24 hours and then treated with 2.5 μM NSC745885 for 12 hours. […] Vehicle (DMSO) and spermidine (Spd) were used as a negative and positive control, respectively.
as §3

Row | SMILES | effect of MG132 on p53 and p21 degradation by NSC745885 (p53 and p21) | sensitivity (cell viability, MTT) in HeLa/shp53 versus HeLa cells (HeLa/shp53 cells) | DNA damage (phosphorylation of γ-H2A.X, immunoblot) (HeLa cells [1]) | senescence rate (SA-β-galactosidase staining) (HeLa cells [2]) [%] | induction of apoptosis (cleaved PARP, caspase 3, DNA fragmentation) (HeLa cells [3]) | Zac1-induced p53-dependent reporter activity [4] | LC3B-II fragment formation (autophagic activation) (HeLa cells [5]) | cell cycle arrest (HeLa cells [6]) | autophagosome formation (LC3 aggregation, GFP-LC3) (HeLa cells [7])
1 | CC(C)C[C@@H](C=O)NC(=O)[C@H](CC(C)C)NC(=O)[C@H](CC(C)C)NC(=O)OCc1ccccc1 [MG132, reference compound] (Cbz-Leu-Leu-Leu-aldehyde) | attenuate the degradation of p53 and p21 |  |  |  |  |  |  |  | 
2 | COc1cccc2c1C(=O)c1c(O)c3c(c(O)c1C2=O)C[C@@](O)(C(=O)CO)C[C@@H]3O[C@H]1C[C@H](N)[C@H](O)[C@H](C)O1 [DXR, doxorubicin, reference compound] |  | dependent on endogenous p53 for cell killing | strongly induced DNA damage | 73 | strongly induced | inhibited Zac1-induced activity | LC3B-II fragment formation | cell cycle arrest in S phase | autophagosome formation
